The assay deals with human PDE10A2 (Homo sapiens (Human), UniProt Q9Y233). Put plainly: PDE10 fluorescence polarization (IMAP FP) inhibition assay. Type of assay: biochemical. The method, then:
The activity of the compounds in accordance with the present invention as PDE10 inhibitors may be readily determined without undue experimentation using a fluorescence polarization (FP) methodology that is well known in the art (Huang, W., et al., J. Biomol Screen, 2002, 7: 215).
In a typical experiment the PDE10 inhibitory activity of the compounds of the present invention was determined in accordance with the following experimental method. PDE10A2 was amplified from human fetal brain cDNA (Clontech, Mountain View, Calif.) using a forward primer corresponding to nucleotides 56-77 of human PDE10A2 (Accession No. AF127480, Genbank Identifier 4894716), containing a Kozak consensus sequence, and a reverse primer corresponding to nucleotides 2406-2413 of human PDE10A2 (Accession No. AF127480, Genbank Identifier 4894716). Amplification with Easy-A polymerase (Stratagene, La Jolla, Calif.) was 95° C. for 2 minutes followed by thirty three cycles of 95° C. for 40 seconds, 55° C. for 30 seconds, and 72° C. for 2 minutes 48 seconds. Final extension was 72° C. for 7 minutes. The PCR product was TA cloned into pcDNA3.2-TOPO (Invitrogen, Carlsbad, Calif.) according to standard protocol. AD293 cells with 70-80% confluency were transiently transfected with human PDE10A2/pcDNA3.2-TOPO using Lipofectamine 2000 according to manufacturer specifications (Invitrogen, Carlsbad, Calif.). Cells were harvested 48 hours post-transfection and lysed by sonication (setting 3, 10×5 sec pulses) in a buffer containing 20 mM HEPES, 1 mM EDTA and protease inhibitor cocktail (Roche). Lysate was collected by centrifugation at 75,000×g for 20 minutes. Supernatant containing the cytoplasmic fraction was used for evaluation of PDE10A2 activity. The fluorescence polarization assay for cyclic nucleotide phosphodiesterases was performed using an IMAP® FP kit supplied by Molecular Devices, Sunnyvale, Calif. (product #R8139). IMAP® technology has been applied previously to phosphodiesterase assays (Huang, W., et al., J. Biomol Screen, 2002, 7: 215). Assays were performed at room temperature in 384-well microtiter plates with an incubation volume of 20.2 μl. Solutions of test compounds were prepared in DMSO and serially diluted with DMSO to yield 8 μL of each of 10 solutions differing by 3-fold in concentration, at 32 serial dilutions per plate. 100% inhibition is determined using a known PDE10 inhibitor, which can be any compound that is present at 5,000 times its Ki value in the assay described as follows, such as papaverine (see Siuciak, et al. Neuropharmacology (2006) 51:386-396; Becker, et al. Behav Brain Res (2008) 186(2):155-60; Threlfell, et al., J Pharmacol Exp Ther (2009) 328(3):785-795), 2-{4-[pyridin-4-yl-1-(2,2,2-trifluoroethyl)-1H-pyrazol-3-yl]phenoxymethyl}quinoline succinic acid or 2-[4-(1-methyl-4-pyridin-4-yl-1H-pyrazol-3-yl)-phenoxymethyl]quinoline succinic acid (see Schmidt, et al. J Pharmacol Exp Ther (2008) 325:681-690; Threlfell, et al., J Pharmacol Exp Ther (2009) 328(3): 785-795). 0% of inhibition is determined by using DMSO (1% final concentrations).
A Labcyte Echo 555 (Labcyte, Sunnyvale, Calif.) is used to dispense 200 nL from each well of the titration plate to the 384 well assay plate. A solution of enzyme (1/1600 dilution from aliquots; sufficient to produce 20% substrate conversion) and a separate solution of FAM-labeled cAMP PDE from Molecular Devices (product #R7506), at a final concentration of 50 nM are made in the assay buffer (10 mM Tris HCl, pH 7.2, 10 mM MgCl2, 0.05% NaN3 0.01% Tween-20, and 1 mM DTT). The enzyme and the substrate are then added to the assay plates in two consecutive additions of 10 μL, and then shaken to mix. The reaction is allowed to proceed at room temperature for 30 minutes. A binding solution is then made from the kit components, comprised of 80% Solution A, 20% Solution B and binding reagent at a volume of 1/600 the total binding solution. […]
In general terms: Polarisation of emitted light reports the rotation of a fluorescent probe.

Where [1] appears, read: human PDE10A2 lysate, IMAP FP, 50 nM FAM-labeled cAMP, room temperature, read-out: PDE10A Ki.
Where [2] appears, read: human PDE10 enzyme, aforementioned assays, read-out: Ki for inhibiting the human PDE10 enzyme (range given).

Drawing on patent US9266881B2, “Triazolopyridinone PDE10 inhibitors” (Merck Sharp & Dohme Corp., priority 2011, dated 2016), this text covers Ki for 22 compounds.

Each structure is given as a SMILES string. Where two headings read alike, the source gives them in different places.

human PDE10A2, sequence (Q9Y233 267-1055): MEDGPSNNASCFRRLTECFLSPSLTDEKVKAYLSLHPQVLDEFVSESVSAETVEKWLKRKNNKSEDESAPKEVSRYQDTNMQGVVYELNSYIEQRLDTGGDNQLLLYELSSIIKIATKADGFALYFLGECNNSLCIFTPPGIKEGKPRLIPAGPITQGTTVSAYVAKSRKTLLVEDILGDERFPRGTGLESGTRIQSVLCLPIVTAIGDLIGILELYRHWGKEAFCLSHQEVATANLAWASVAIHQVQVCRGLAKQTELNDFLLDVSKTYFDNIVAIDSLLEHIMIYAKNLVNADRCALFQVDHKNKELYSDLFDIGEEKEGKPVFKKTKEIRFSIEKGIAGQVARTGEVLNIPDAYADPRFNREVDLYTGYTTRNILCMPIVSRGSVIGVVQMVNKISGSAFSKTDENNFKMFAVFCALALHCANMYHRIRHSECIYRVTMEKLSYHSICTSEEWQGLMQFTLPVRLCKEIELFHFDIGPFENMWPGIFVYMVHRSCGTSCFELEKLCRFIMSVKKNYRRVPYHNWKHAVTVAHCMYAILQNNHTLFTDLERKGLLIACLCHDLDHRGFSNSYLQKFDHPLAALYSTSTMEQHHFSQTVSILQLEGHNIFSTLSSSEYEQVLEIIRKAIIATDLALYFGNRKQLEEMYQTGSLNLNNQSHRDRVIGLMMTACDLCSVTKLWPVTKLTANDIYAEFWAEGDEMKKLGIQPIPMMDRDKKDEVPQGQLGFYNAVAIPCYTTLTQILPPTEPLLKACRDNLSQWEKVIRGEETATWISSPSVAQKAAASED

Take `O=c1n(CCc2ccc3ccccc3n2)nc2c(Br)cccn12` [Compound 1-6]: the Ki (usually a measure of affinity in units of concentration, obtained from inhibition or displacement) under setting [1] was 37 nM.
Same read-out and setting: next, `O=C(Nc1cccnc1)c1cccc2nn(CCc3ccc4ccccc4n3)c(=O)n12` [Compound 8-2, 3-oxo-N-pyridin-3-yl-2-(2-quinolin-2-ylethyl)-2,3-dihydro[1,2,4]triazolo[4,3-a]pyridine-5-carboxamide]: 97 nM; `O=c1n(C[C@@H]2C[C@H]2c2ccccn2)nc2cccc(N3CCOCC3)n12` [Compound 13-6, 5-morpholino-2-(((1R,2R)-2-(pyridin-2-yl)cyclopropyl)methyl)-[1,2,4]triazolo[4,3-a]pyridin-3(2H)-one]: 546 nM; `Cc1ccc(-c2cccc3nn(CCc4ccc5ccccc5n4)c(=O)n23)cc1` [Compound A-3, 5-(4-methylphenyl)-2-(2-quinolin-2-ylethyl)[1,2,4]triazolo[4,3-a]pyridin-3(2H)-one]: 17 nM.
For the compound `Cn1cc(-c2ccccc2)nc1CCn1nc2cccc(Br)n2c1=O` [Compound 11-4, 5-bromo-2-[2-(1-methyl-4-phenyl-1H-imidazol-2-yl)ethyl][1,2,4]triazolo[4,3-a]pyridin-3(2H)-one], the Ki by setting is: under setting [1], 7.2 nM; under setting [2], 0.1 to 10 nM.
On to `O=c1n(CCc2ccc3ccccc3n2)nc2cccc(-c3ccncc3)n12` [Compound 5-1, 5-pyridin-4-yl-2-(2-quinolin-2-ylethyl)[1,2,4]triazolo[4,3-a]pyridin-3(2H)-one], for which the Ki is, setting by setting: under setting [1], 4.4 nM; under setting [2], 0.1 to 10 nM.
`O=c1n(CCc2ccc3ccccc3n2)nc2cccc(Br)n12` [Compound 2-4, 5-bromo-2-(2-quinolin-2-ylethyl)[1,2,4]triazolo[4,3-a]pyridin-3(2H)-one]: the Ki under setting [1] turned out to be 59 nM.
Take `O=c1n(CCc2ccc3ccccc3n2)nc2cccc(-c3ccccc3)n12` [Compound A-5, 5-phenyl-2-(2-quinolin-2-ylethyl)[1,2,4]triazolo[4,3-a]pyridin-3(2H)-one]: the Ki under setting [1] amounted to 20 nM.
Turning to `Cn1cc(-c2ccccc2)nc1CCn1nc2cccc(N3CCOCC3)n2c1=O` [Compound 12-1, 2-[2-(1-methyl-4-phenyl-1H-imidazol-2-yl)ethyl]-5-morpholin-4-yl[1,2,4]triazolo[4,3-a]pyridin-3(2H)-one], the Ki by setting is: under setting [1], 0.41 nM; under setting [2], 0.1 to 10 nM.
Turning to `O=c1n(CCc2ccc3ccccc3n2)nc2ccc(Br)cn12` [Compound 3-4, 6-bromo-2-(2-quinolin-2-ylethyl)[1,2,4]triazolo[4,3-a]pyridin-3(2H)-one], the Ki under setting [1] amounted to 155 nM.
On the same count and under the same terms, next, `O=c1n(CCc2ccc3ccccc3n2)nc2cccc(NCc3cccnc3)n12` [Compound A-7, 5-[(pyridin-3-ylmethyl)amino]-2-(2-quinolin-2-ylethyl)[1,2,4]triazolo[4,3-a]pyridin-3(2H)-one]: 12 nM; `O=c1n(CCc2ccc3ccccc3n2)nc2c(-c3ncco3)cccn12` [Compound 4-1, 8-(1,3-oxazol-2-yl)-2-(2-quinolin-2-ylethyl)[1,2,4]triazolo[4,3-a]pyridin-3(2H)-one]: 22 nM.
Same read-out and setting: to `Cc1cccn2c(=O)n(CCc3ccc4ccccc4n3)nc12` [Compound A-2, 8-methyl-2-(2-quinolin-2-ylethyl)[1,2,4]triazolo[4,3-a]pyridin-3(2H)-one] belongs 74 nM.
With `O=c1n(CCc2ccc3ccccc3n2)nc2cccc(-c3cccnc3)n12` [Compound A-1, 5-pyridin-3-yl-2-(2-quinolin-2-ylethyl)[1,2,4]triazolo[4,3-a]pyridin-3(2H)-one], the Ki was 9 nM under setting [1] and 0.1 to 10 nM under setting [2].
Regarding `COc1ccc(C(C)(O)c2cccc3nn(CCc4ccc5ccccc5n4)c(=O)n23)cc1` (stereo not shown) [Compound 7-2, 5-[1-hydroxy-1-(4-methoxyphenyl)ethyl]-2-(2 - quinolin-2-ylethyl)[1,2,4]triazolo[4,3-a]pyridin-3(2H)-one], the Ki under setting [1] worked out at 11 nM.
Same read-out and setting: to `O=c1n(CCc2ccc3ccccc3n2)nc2cccc(N3CCCCC3)n12` [Compound A-6, 5-piperidin-1-yl-2-(2-quinolin-2-ylethyl)[1,2,4]triazolo[4,3-a]pyridin-3(2H)-one] belongs 19 nM.
Regarding `O=c1n(CCc2ccc3ccccc3n2)nc2cccc(N3CCOCC3)n12` [Compound 6-1, 5-morpholin-4-yl-2-(2-quinolin-2-ylethyl)[1,2,4]triazolo[4,3-a]pyridin-3(2H)-one], the Ki under setting [1] was found to be 2.5 nM and the Ki under setting [2] was 0.1 to 10 nM.
As to `CC(C)(O)c1cccc2nn(CCc3ccc4ccccc4n3)c(=O)n12` [Compound A-8, 5-(1-hydroxy-1-methylethyl)-2-(2-quinolin-2-ylethyl)[1,2,4]triazolo[4,3-a]pyridin-3(2H)-one], the inhibition constant Ki under setting [1] was 72 nM.
For the compound `Cn1cc(-c2ccccc2)nc1CCn1nc2cccc(-c3ccncc3)n2c1=O` [Compound B-1, 2-[2-(1-methyl-4-phenyl-1H-imidazol-2-yl)ethyl]-5-pyridin-4-yl[1,2,4]triazolo[4,3-a]pyridin-3(2H)-one], the Ki runs as follows: under setting [1], 2 nM; under setting [2], 0.1 to 10 nM.
With `O=c1n(CCc2ccc3ccccc3n2)nc2cccc(-c3cncs3)n12` [Compound A-4, 2-(2-quinolin-2-ylethyl)-5-(1,3-thiazol-5-yl)[1,2,4]triazolo[4,3-a]pyridin-3(2H)-one], under setting [1], the Ki came to 23 nM.
As to `O=c1n(CCc2ccc3ncccc3n2)nc2c(-c3ccncc3)cccn12` [Compound 10-4, 2-[2-(1,5-naphthyridin-2-yl)ethyl]-8-pyridin-4-yl[1,2,4]triazolo[4,3-a]pyridin-3(2H)-one], under setting [1], the Ki was found to be 103 nM.
Consider `O=c1n(CCc2ccc3ccccc3n2)nc2ccc(-c3cccnc3)cn12` [Compound 9-1, 6-pyridin-3-yl-2-(2-quinolin-2-ylethyl)[1,2,4]triazolo[4,3-a]pyridin-3(2H)-one], for which the Ki under setting [1] was found to be 510 nM.
